In patent US7157083B2, “Compositions and methods for treating retroviral infections” (priority 1998, dated 2007):
Like-named read-outs stand apart in the source and are kept apart here.

Test system: HIV-1
Settings: for % Control, Sum / Mean RT, Sum: Sum over 20, 10, 5 mg/mL
Description: Reverse transcriptase (RT) activity was measured in cell-free supernatants. Tritiated thymidine triphosphate (NEN) (TTP) was resuspended in distilled H2O at […]. Poly rA and oligo dT were prepared as a stock solution which was kept at −20° C. The RT reaction buffer was prepared fresh on a daily basis and consists of 125 μL 1.0 M EGTA, 125 μL d H2O, 110 μL 10% SDS, 50 μL 1.0 M Tris (pH 7.4), 50 μL 1.0 M DTT, and 40μ1.0 M MgCl2. These three solutions were mixed together in a ratio of 2 parts TTP, 1 part poly rA:oligo dT, and 1 part reaction buffer. Ten microliters of this reaction mixture was placed in a round bottom microtiter plate and 15 μL of virus containing supernatant was added and mixed. The plate was incubated at 37° C. in a water bath with a solid support to prevent submersion of the plate and incubated for 60 minutes. Following reaction, the reaction volume was spotted onto pieces of DE81 paper, washed 5 times for 5 minutes each in a 5% sodium phosphate buffer, 2 times for 1 minute each in distilled water, 2 times for 1 minute each in 70% ethanol, and then dried. Opti-Fluor O was added to each sample and incorporated radioactivity was quantitated utilizing a Wallace 1450 Microbetaplus liquid scintillation counter.
Control groups were not treated with the enzyme. The virus was then titrated on macrophage/monocyte cultures and incubated at 37° C. for 48 hours at which time the macrophages and monocytes were washed 3×, resuspended and placed in fresh wells. Naïve PBMC's were overlayed on the macrophage/monocyte cultures and incubated at 37° C. for 72 hours. The PBMC's were then separated, washed and placed in fresh wells with fresh medium and rested for 48 hours. After a 48 hour rest period, the PBMC's were challenged with HIV-1 with and without PHA, I1-2, or both. […] These various assays are presented below in Table 10 .

In the case of Hyaluronidase, the “% Control” value (Assay #1, 5 mg/mL) was 97.3%, the “Mean RT” value (Assay #1, 5 mg/mL) was 20882.7 cpm and the “% Control” value (Assay #1, 10 mg/mL) was 27.9%. For the same substance, the “Mean RT” value (Assay #1, 10 mg/mL) was 6000 cpm, the “% Control” value (Assay #1, 20 mg/mL) was 16.9% and the “Mean RT” value (Assay #1, 20 mg/mL) was 3635.7 cpm. The “% Control, Sum” value (Assay #1) was 142.1%, the “Mean RT, Sum” value (Assay #1) was 30518.4 cpm and the “% Control” value (Assay #2, 5 mg/mL) was 20.6%. The “Mean RT” value (Assay #2, 5 mg/mL) was 6548.3 cpm, the “% Control” value (Assay #2, 10 mg/mL) was 26.4% and the “Mean RT” value (Assay #2, 10 mg/mL) was 8391.3 cpm. For the same substance, the “% Control” value (Assay #2, 20 mg/mL) was 10.4%, the “Mean RT” value (Assay #2, 20 mg/mL) was 3298.3 cpm and the “% Control, Sum” value (Assay #2) was 57.4%. For the same substance, the “Mean RT, Sum” value (Assay #2) was 18237.9 cpm, the “% Control” value (Assay #3, 5 mg/mL) was 42.7% and the “Mean RT” value (Assay #3, 5 mg/mL) was 5641.7 cpm. For the same substance, the “% Control” value (Assay #3, 10 mg/mL) was 91.2%, the “Mean RT” value (Assay #3, 10 mg/mL) was 12058 cpm and the “% Control” value (Assay #3, 20 mg/mL) was 90.3%. The “Mean RT” value (Assay #3, 20 mg/mL) was 11940.7 cpm, the “% Control, Sum” value (Assay #3) was 224.2% and the “Mean RT, Sum” value (Assay #3) was 29640.4 cpm. The “% Control” value (Assay #4, 5 mg/mL) was 1.9%, the “Mean RT” value (Assay #4, 5 mg/mL) was 247.3 cpm and the “% Control” value (Assay #4, 10 mg/mL) was 22.4%. The “Mean RT” value (Assay #4, 10 mg/mL) was 2973.7 cpm, the “% Control” value (Assay #4, 20 mg/mL) was 29.9% and the “Mean RT” value (Assay #4, 20 mg/mL) was 3961.7 cpm. The “% Control, Sum” value (Assay #4) was 54.2%, the “Mean RT, Sum” value (Assay #4) was 7182.7 cpm and the “% Control” value (Assay #9, 5 mg/mL) was 137.4%. The “Mean RT” value (Assay #9, 5 mg/mL) was 11038 cpm, the “% Control” value (Assay #9, 10 mg/mL) was 128.8% and the “Mean RT” value (Assay #9, 10 mg/mL) was 10344 cpm. For the same substance, the “% Control” value (Assay #9, 20 mg/mL) was 96.2%, the “Mean RT” value (Assay #9, 20 mg/mL) was 7725.7 cpm and the “% Control, Sum” value (Assay #9) was 362.4%. The “Mean RT, Sum” value (Assay #9) was 29107.7 cpm, the “% Control” value (Assay #10, 5 mg/mL) was 230.8% and the “Mean RT” value (Assay #10, 5 mg/mL) was 13715.3 cpm. For the same substance, the “% Control” value (Assay #10, 10 mg/mL) was 122.2%, the “Mean RT” value (Assay #10, 10 mg/mL) was 7258.7 cpm and the “% Control” value (Assay #10, 20 mg/mL) was 61.1%. The “Mean RT” value (Assay #10, 20 mg/mL) was 3633.7 cpm, the “% Control, Sum” value (Assay #10) was 414.1% and the “Mean RT, Sum” value (Assay #10) was 24607.7 cpm. The “% Control” value (Assay #11, 5 mg/mL) was 63.2%, the “Mean RT” value (Assay #11, 5 mg/mL) was 17826.3 cpm and the “% Control” value (Assay #11, 10 mg/mL) was 75.3%. For the same substance, the “Mean RT” value (Assay #11, 10 mg/mL) was 21230 cpm, the “% Control” value (Assay #11, 20 mg/mL) was 30.1% and the “Mean RT” value (Assay #11, 20 mg/mL) was 8496.3 cpm. For the same substance, the “% Control, Sum” value (Assay #11) was 168.6%, the “Mean RT, Sum” value (Assay #11) was 47552.6 cpm and the “% Control” value (Assay #12, 5 mg/mL) was 118.3%. For the same substance, the “Mean RT” value (Assay #12, 5 mg/mL) was 17657 cpm, the “% Control” value (Assay #12, 10 mg/mL) was 39.8% and the “Mean RT” value (Assay #12, 10 mg/mL) was 5946.7 cpm. The “% Control” value (Assay #12, 20 mg/mL) was 56.1%, the “Mean RT” value (Assay #12, 20 mg/mL) was 8382 cpm and the “% Control, Sum” value (Assay #12) was 214.2%. The “Mean RT, Sum” value (Assay #12) was 31985.7 cpm.
